According to ChEMBL document CHEMBL1201862, “PubChem BioAssay data set” (2004):
Active and inactive are the calls of the source.

Columns and labels:
[1] = viability loss in HEK293 cells – cell-based, plate reader, cherry-picked samples, cytotoxicity control, dose response (AID 743446); assay type: functional
[2] = blockade of melanocortin 4 receptor signaling – cell-based, plate reader, cherry pick, counter-screen for LGR2 antagonist project, dose response (AID 743444); assay type: functional;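 also: transfected HEK 293 cells stimulated with alpha-MSH peptide; potency of inhibitors of the alpha-MSH evoked signal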
[3] = reduction of Shn3 3'UTR-driven luciferase in osteoblasts – cell-based, Clone20 osteoblasts, firefly luciferase, cherry-picked, dose response (AID 624132); assay type: functional;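 also: firefly luciferase luminescence from reporter carrying the Shn3 3'UTR in osteoblasts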
[4] = blockers of bursicon-stimulated LGR2 cAMP reporter – cell-based, HEK293, CRE-luciferase reporter, cherry pick, set 2, dose response (AID 743343); assay type: functional;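 also: transfected cells were stimulated with diluted bursicon conditioned medium after compound addition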
[5] = target: T1, Heat shock factor protein 1 (Mus musculus, UniProt P38532); assay: decrease of HSF1-responsive luciferase luminescence – cell-based, NIH3T3, dose retest, confirmation (AID 2382); assay type: functional;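 also: NIH3T3 fibroblasts with HSF1-driven luciferase reporter stressed by proteasome inhibitor MG132; luminescence from HSF1-driven luciferase expression after 8 hours of MG132 stress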
T1 sequence (P38532 whole entry): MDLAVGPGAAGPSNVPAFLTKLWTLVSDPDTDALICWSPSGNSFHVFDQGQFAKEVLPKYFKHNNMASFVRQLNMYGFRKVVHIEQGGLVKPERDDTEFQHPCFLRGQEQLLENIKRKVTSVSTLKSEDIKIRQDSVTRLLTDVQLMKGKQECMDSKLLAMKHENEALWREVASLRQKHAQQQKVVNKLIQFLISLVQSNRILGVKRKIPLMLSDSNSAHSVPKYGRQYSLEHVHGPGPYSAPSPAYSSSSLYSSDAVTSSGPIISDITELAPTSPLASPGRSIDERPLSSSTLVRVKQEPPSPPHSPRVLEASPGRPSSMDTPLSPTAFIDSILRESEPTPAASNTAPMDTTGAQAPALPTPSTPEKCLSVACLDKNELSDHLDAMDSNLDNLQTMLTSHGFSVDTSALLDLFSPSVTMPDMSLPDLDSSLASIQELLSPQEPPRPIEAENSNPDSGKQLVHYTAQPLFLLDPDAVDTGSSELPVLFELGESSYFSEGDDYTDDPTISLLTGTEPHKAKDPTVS

[6] = toxicity toward HepG2 liver cells – cell-based, plate reader, cherry-pick, antagonist series, cytotoxicity control, dose response (AID 743416); assay type: functional
[7] = Shn3 3'UTR reporter signal decrease – cell-based, Clone20 osteoblasts, firefly luciferase, cherry-pick, set 2, Schnurri-3 inhibitor project, dose response (AID 720490); assay type: functional;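 also: actives lower the luminescence signal as inhibitors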
[8] = A549 cell cytotoxicity, dose response, cytotoxicity control, plate reader, cherry-pick, antagonist series (AID 743412); assay type: functional, cell-based
[9] = target: T2, Microphthalmia-associated transcription factor (Homo sapiens, UniProt O75030); assay: reducers of TRPM1 reporter luminescence, concentration series – cell-based, SK-MEL-5, cherry-picked, set 3, MITF inhibitor project, dose response (AID 493073); assay type: functional;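 also: SK-MEL-5 melanoma cells with luciferase driven by the MITF target TRPM1 promoter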
T2 sequence (O75030 whole entry): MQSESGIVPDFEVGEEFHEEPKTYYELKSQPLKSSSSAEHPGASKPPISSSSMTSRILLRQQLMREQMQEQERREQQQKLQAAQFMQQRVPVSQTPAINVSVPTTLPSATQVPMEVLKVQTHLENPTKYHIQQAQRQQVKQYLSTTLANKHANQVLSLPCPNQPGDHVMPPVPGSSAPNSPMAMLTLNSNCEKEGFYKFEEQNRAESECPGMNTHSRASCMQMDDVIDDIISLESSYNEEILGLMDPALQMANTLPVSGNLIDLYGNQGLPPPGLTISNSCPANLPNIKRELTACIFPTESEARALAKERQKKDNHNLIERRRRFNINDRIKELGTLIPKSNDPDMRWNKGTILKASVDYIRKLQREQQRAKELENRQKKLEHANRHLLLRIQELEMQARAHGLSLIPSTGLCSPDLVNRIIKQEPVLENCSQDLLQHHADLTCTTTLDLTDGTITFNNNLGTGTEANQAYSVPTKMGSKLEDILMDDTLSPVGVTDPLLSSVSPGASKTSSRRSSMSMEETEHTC

[10] = tested on: Streptococcus sp. 'group A'; assay: Streptococcus pyogenes SK(-)GAS viability under kanamycin – luminescence, BacTiterGlo, confirmation, counter-screen for streptokinase expression inhibitor project, dose response (AID 1900); assay type: functional, organism-based
[11] = Luminescence Cell-Based Dose Retest to Confirm Inhibitors of Cancer Stem Cells. [Related pubchem assays (depositor defined):AID2717, AID2721]; assay type: functional; details: Homo sapiens
Streptococcus = assay: GAS UMAA2166 growth inhibition – luminescence, BacTiterGlo, counter-screen for streptokinase expression inhibitor project, dose response (AID 1915); assay type: functional, organism-based;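 also: potency for reduction of bacterial viability or growth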
[12] = target: Disintegrin and metalloproteinase domain-containing protein 17 (Homo sapiens, UniProt P78536); assay: inhibition of ADAM17 substrate cleavage – biochemical, quenched FRET substrate, counter-screen for ADAM10 exosite inhibitor project, dose response (AID 743253)
[13] = Trypanosoma cruzi growth suppression in host cells – NIH3T3 host cells, beta-gal luminescence, confirmation (AID 2044); assay type: functional, cell-based;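 also: intracellular parasites grown in NIH/3T3 mouse fibroblasts as host cells; luminescent beta-galactosidase reporter signal from transgenic T. cruzi replicating inside host cells; inhibitors lower the luminescence signal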
Streptokinase A = target: T3, Streptokinase A (Streptococcus pyogenes serotype M1, UniProt P10520); assay: viability-normalized secreted streptokinase activity reduction – plasminogen activation absorbance, OD405, dose response (AID 1914); assay type: functional, Streptococcus pyogenes M1 GAS;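 also: secreted streptokinase activity via plasminogen activation per viability signal from cell pellet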
T3 sequence (P10520 whole entry): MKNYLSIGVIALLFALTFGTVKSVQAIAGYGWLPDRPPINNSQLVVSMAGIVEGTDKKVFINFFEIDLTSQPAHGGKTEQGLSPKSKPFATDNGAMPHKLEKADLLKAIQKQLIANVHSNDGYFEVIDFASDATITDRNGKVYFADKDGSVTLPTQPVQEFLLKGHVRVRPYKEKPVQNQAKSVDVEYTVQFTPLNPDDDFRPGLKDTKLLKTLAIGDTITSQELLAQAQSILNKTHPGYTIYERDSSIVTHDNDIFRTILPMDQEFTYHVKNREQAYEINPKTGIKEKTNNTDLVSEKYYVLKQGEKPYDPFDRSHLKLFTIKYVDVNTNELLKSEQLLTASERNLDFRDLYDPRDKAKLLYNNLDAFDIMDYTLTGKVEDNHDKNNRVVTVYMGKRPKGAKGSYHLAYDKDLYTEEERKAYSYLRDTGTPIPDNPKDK

[14] = NIH3T3 cell viability loss – ATP luminescence, mouse fibroblasts, counter-screen, dose response (AID 2010); assay type: functional, cell-based;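 also: cells exposed to compound for about 90 hours before reading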
[15] = Late stage assay provider results from the probe development effort to identify inhibitors of the Plasmodium falciparum M18 Aspartyl Aminopeptidase (M18AAP): radiolabel-based cell-based dose response assay to identify compounds that inhibit P. falciparum growth in RBCs, Set 2..; assay type: functional
[16] = target: T4, Polyadenylate-binding protein 1 (Homo sapiens, UniProt P11940); assay: MLLE binding blockers, Cy5 peptide tracer – biochemical, fluorescence polarization, Cy5-PAM2 peptide, secondary, miRNA deadenylation inhibitor project, dose response (AID 602260); assay type: functional; details: read-out: IC50_Mean
[17] = target: T5, Voltage-gated N-type calcium channel alpha-1B subunit/Amyloid beta A4 precursor protein-binding family A member 1 (Homo sapiens, UniProt Q00975+Q02410); assay type: protein assay
SUMO-activating enzyme [18] = target: T6, SUMO-activating enzyme (Homo sapiens, UniProt Q9UBT2); assay: blockers of UBC9-mediated SUMO conjugation – biochemical, AlphaScreen, SUMOylation inhibitor project, confirmation (AID 2018); assay type: functional
[19] = target: T4, Polyadenylate-binding protein 1; assay: MLLE domain peptide-binding blockers, IC50 – biochemical, fluorescence polarization, FITC-PAM2 peptide, dose response (AID 602259); assay type: functional; details: read-out: IC50_Mean
[20] = target: T5, Voltage-gated N-type calcium channel alpha-1B subunit/Amyloid beta A4 precursor protein-binding family A member 1; assay type: protein assay; remark: listed apart in the source
[21] = target: Glucose-6-phosphate 1-dehydrogenase (Homo sapiens, UniProt P11413); assay: inhibition of Homo sapiens G6PD, dose series – biochemical, fluorescence, selectivity assay for P. falciparum G6PD inhibitor project, dose response (AID 504792); assay type: functional
SUMO-activating enzyme [22] = target: T6, SUMO-activating enzyme; assay: blockers of SAE1/SAE2–UBC9 SUMO transfer – biochemical, HTRF, uHTS, primary screen (AID 2006); assay type: protein-complex assay
[23] = target: T7, Apoptotic protease-activating factor 1 (Homo sapiens, UniProt O14727); assay type: functional
T7 sequence (O14727 whole entry): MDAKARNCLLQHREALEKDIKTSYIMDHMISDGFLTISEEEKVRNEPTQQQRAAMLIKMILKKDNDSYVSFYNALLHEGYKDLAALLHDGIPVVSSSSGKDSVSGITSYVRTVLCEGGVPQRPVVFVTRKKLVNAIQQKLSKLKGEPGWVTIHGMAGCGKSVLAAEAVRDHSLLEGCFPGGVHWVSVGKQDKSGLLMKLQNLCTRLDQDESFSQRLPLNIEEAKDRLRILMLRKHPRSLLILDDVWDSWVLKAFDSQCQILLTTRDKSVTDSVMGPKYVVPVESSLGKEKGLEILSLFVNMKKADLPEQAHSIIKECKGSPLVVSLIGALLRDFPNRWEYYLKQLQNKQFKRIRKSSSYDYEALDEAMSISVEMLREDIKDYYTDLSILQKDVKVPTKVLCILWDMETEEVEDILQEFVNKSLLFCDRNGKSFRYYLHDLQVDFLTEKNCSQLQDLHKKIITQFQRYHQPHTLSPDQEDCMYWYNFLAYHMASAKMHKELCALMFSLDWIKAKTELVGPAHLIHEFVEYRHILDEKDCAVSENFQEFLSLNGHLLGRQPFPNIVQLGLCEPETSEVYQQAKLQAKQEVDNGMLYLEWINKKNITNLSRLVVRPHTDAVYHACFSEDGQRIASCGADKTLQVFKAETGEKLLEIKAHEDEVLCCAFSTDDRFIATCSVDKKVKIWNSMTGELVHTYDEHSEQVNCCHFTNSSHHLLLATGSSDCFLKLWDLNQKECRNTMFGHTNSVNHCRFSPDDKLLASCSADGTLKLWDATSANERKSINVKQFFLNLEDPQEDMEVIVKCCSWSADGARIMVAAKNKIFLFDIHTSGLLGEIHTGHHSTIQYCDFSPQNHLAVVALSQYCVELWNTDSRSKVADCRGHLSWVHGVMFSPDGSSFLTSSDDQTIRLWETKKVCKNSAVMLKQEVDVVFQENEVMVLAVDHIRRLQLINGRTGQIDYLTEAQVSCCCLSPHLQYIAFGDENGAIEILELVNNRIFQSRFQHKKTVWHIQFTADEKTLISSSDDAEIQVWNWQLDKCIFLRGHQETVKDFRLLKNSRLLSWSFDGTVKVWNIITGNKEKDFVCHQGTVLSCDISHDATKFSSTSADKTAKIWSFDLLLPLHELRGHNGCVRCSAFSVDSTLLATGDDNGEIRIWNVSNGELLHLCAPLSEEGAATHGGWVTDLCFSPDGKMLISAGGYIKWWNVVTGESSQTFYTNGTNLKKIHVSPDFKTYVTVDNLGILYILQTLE

cells = details: HEK293
[24] = target: Mannose-6-phosphate isomerase (Homo sapiens, UniProt P34949); assay: MPI inhibition at elevated mannose 6-phosphate – biochemical, fluorescence intensity, high mannose 6-phosphate, primary screen (AID 1220)
[25] = mouse embryonic fibroblast toxicity – cell-based, plate reader, dry powder, set 2, cytotoxicity control, dose response (AID 652280); assay type: functional; details: NIH3T3
[26] = T. cruzi growth inhibition in host cells, dose response, cell-based, plate reader, dry powder, set 2 (AID 652275); assay type: functional

T6 sequence (Q9UBE0 whole entry, the tested form may be a part): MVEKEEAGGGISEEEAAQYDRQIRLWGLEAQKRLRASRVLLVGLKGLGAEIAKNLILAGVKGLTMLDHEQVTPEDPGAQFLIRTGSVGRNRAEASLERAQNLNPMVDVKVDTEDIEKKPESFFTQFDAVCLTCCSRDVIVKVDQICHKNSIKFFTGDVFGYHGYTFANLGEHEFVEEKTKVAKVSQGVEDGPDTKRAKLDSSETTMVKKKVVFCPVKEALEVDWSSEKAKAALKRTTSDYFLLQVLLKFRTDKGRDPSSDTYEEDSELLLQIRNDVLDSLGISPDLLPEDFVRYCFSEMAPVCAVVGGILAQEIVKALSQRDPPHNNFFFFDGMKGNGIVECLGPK
T6 sequence (Q9UBT2 whole entry, the tested form may be a part): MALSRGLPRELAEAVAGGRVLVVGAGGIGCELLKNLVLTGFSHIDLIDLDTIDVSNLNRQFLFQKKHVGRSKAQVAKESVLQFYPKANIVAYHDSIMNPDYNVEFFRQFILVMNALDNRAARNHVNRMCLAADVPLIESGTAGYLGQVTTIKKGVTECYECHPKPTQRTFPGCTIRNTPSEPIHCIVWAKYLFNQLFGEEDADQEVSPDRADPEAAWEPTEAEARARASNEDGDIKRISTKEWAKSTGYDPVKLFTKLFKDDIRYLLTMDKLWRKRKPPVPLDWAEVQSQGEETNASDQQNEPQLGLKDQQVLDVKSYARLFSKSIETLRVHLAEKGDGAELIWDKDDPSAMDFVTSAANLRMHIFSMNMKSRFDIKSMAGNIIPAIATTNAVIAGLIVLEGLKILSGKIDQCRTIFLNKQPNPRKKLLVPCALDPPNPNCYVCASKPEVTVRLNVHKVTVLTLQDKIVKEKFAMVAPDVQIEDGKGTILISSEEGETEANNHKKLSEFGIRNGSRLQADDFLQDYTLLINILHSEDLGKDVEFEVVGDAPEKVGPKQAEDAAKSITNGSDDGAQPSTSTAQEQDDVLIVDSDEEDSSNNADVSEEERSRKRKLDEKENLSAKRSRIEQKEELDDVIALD
T4 sequence (P11940 whole entry): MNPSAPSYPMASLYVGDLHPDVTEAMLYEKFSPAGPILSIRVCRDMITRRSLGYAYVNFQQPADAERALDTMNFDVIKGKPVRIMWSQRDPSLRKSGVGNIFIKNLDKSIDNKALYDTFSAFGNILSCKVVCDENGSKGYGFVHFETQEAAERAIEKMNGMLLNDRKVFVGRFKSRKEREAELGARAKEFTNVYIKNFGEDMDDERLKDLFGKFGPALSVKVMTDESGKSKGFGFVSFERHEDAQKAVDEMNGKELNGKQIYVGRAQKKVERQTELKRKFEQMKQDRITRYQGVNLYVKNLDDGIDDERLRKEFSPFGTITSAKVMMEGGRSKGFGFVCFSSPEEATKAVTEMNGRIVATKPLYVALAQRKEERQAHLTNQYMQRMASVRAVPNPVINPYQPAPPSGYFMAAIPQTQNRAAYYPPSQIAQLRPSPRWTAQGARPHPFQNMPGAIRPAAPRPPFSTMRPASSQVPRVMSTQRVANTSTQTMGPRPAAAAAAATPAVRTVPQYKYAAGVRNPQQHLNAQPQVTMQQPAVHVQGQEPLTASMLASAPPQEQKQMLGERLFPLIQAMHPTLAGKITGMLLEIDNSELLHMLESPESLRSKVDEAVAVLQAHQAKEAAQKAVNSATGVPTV
T5 sequence (Q00975 whole entry): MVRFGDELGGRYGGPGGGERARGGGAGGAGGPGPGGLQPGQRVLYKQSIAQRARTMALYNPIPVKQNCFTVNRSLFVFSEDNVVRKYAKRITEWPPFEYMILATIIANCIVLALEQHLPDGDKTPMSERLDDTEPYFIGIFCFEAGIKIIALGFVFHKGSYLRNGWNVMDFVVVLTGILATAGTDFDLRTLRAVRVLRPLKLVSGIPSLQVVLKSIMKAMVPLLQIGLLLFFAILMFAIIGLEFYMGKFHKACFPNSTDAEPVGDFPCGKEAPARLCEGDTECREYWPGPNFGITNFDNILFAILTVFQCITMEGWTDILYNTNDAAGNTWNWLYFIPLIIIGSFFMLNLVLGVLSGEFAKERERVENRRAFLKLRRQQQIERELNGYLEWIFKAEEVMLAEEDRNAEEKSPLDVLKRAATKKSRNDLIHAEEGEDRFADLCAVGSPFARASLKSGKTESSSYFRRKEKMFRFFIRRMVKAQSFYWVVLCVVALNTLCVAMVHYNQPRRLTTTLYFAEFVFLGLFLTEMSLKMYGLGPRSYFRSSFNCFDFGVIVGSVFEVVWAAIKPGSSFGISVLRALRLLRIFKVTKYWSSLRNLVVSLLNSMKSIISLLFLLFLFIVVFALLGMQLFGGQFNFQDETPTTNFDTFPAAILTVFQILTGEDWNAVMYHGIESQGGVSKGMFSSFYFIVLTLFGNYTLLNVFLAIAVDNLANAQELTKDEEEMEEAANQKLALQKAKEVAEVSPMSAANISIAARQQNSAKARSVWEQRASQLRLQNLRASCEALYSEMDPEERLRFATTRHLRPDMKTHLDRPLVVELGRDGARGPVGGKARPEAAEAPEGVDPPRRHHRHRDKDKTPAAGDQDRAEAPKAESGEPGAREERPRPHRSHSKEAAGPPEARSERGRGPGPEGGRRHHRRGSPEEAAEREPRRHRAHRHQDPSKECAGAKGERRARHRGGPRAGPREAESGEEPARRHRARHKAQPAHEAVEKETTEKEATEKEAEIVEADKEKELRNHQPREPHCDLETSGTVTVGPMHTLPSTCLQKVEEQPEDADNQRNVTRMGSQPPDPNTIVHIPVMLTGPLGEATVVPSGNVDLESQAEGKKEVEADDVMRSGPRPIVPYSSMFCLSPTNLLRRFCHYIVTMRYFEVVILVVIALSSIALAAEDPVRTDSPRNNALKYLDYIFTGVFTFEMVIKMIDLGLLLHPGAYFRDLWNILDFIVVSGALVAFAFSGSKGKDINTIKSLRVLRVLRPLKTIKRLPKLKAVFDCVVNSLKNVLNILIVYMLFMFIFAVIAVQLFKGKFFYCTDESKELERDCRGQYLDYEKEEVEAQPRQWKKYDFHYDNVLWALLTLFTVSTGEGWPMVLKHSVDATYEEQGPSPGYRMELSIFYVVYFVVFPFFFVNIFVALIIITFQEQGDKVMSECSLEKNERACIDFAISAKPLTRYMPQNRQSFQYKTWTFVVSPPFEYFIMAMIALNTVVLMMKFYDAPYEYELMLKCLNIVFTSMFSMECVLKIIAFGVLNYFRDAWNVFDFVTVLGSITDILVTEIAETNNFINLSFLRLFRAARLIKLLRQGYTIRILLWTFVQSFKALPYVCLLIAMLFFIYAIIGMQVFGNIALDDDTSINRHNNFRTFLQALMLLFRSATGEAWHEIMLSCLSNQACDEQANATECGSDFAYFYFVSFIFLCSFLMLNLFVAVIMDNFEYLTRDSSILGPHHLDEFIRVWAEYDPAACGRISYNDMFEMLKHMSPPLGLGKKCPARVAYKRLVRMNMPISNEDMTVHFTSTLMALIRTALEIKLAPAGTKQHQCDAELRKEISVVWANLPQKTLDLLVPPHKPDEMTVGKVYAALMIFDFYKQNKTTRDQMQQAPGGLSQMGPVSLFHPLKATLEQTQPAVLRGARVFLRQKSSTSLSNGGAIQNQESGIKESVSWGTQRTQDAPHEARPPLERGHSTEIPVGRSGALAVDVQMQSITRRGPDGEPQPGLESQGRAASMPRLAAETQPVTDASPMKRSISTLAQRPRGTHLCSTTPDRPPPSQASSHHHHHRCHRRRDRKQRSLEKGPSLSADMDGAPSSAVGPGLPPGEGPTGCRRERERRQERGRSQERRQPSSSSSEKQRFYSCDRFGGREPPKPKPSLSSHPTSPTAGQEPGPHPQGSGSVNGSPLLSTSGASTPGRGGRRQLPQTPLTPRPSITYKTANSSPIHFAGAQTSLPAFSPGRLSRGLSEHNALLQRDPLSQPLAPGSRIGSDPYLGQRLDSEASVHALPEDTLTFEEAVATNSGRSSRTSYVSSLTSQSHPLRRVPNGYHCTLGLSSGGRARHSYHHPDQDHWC
T5 sequence (Q02410 whole entry): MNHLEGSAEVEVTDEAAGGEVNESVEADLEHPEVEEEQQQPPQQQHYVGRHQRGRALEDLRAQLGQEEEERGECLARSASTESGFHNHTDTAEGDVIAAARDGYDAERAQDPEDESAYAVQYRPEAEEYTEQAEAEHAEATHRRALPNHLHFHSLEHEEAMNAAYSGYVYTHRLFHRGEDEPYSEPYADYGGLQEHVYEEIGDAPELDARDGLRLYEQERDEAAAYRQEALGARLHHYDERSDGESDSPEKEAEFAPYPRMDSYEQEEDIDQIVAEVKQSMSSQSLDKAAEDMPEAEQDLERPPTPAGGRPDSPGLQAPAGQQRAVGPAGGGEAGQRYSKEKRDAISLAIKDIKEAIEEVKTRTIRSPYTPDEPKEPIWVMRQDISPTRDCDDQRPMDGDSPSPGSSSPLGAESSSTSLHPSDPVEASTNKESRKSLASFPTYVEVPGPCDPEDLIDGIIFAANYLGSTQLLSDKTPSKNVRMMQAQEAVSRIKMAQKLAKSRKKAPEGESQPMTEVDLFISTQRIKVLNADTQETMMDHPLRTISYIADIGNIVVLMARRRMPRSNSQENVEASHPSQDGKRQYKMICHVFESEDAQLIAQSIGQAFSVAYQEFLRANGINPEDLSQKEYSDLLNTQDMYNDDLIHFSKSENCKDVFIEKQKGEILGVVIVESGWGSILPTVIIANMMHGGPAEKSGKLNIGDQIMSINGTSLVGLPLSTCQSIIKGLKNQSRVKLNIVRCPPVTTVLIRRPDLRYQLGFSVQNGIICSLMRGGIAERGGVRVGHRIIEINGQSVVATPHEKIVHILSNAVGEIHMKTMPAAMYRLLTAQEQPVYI

## O=C(O)c1cccc(COc2ccccc2Cl)c1
[1]
  AC50: > 52 µM (inactive)
[2]
  AC50: 0.488 µM (active)
[3]
  AC50: 1.48 µM (active)
[4]
  AC50: 0.517 µM (active)
[5]
  EC50: 1.06 µM (active)
[6]
  AC50: > 52 µM (inactive)
[7]
  AC50: 4.74 µM (active)
[8]
  AC50: > 52 µM (inactive)
[9]
  AC50: 0.756 µM (active)

## O=C(Nc1cccc(S(=O)(=O)Nc2ccc(Cl)cc2)c1)c1cc2c(s1)CCCC2
[10]
  EC50: 2.51 µM (active)
[11]
  AC50: 2.28 µM (active)
Streptococcus
  EC50: 1.98 µM (active)
[12]
  IC50: > 69.5 µM (inactive)
[13]
  EC50: 1.09 µM (active)
Streptokinase A
  EC50: 5.01 µM (active)
[14]
  EC50: 10.9 µM (active)

## COc1ccc(CCNc2cncc3ccccc23)cc1OC
[15]
  IC50: 4.5 µM (active)

## CCOC(=O)c1c2ccc(OCC(=O)NN)cc2n2ccccc12
[16]
  IC50: > 66 µM (inactive)
[17]
  IC50: 2.73 µM (active)
SUMO-activating enzyme [18]
  IC50: 6.82 µM (active)
[19]
  IC50: 33.6 µM (inactive)
[20]
  IC50: 40.2 µM (active)
[21]
  IC50: 62.8 µM (inactive)
SUMO-activating enzyme [22]
  IC50: 1.64 µM (active)
[23]
  IC50: 18.5 µM (active)
cells
  AC50: > 52 µM (inactive)
[24]
  IC50: > 50 µM (not active)

## CC(C)(C)[S@@+]([O-])N1Cc2cc(C(=O)NCc3ccc4c(c3)OCO4)nc(-c3cccc(-c4ccncc4)c3)c2[C@H]1CCO
[25]
  AC50: 8.56 µM (active)
[26]
  AC50: 0.341 µM (active)
